# Measurements as given in patent US5674905A, “Bicyclooctane and bicycloheptane derivatives” (James Black Foundation Limited, priority 1992, dated 1997).
# Key:
# CCKB receptor = target: T1, CCKB receptor (Mus musculus, UniProt P56481); assay: radioligand binding assay at the CCKB receptor in mouse cortical membranes ([125I]-CCK8S); details: 150 min at 21±3°; for Ki: read-out: CCKB pKi (converted)
# T1 construct: The cortex was dissected, weighed and homogenised in 40 ml ice-cold buffer; from tissue; host or cells: cerebral cortex membranes of male CD1 mice (Charles River)
# T1 sequence (P56481 1-453): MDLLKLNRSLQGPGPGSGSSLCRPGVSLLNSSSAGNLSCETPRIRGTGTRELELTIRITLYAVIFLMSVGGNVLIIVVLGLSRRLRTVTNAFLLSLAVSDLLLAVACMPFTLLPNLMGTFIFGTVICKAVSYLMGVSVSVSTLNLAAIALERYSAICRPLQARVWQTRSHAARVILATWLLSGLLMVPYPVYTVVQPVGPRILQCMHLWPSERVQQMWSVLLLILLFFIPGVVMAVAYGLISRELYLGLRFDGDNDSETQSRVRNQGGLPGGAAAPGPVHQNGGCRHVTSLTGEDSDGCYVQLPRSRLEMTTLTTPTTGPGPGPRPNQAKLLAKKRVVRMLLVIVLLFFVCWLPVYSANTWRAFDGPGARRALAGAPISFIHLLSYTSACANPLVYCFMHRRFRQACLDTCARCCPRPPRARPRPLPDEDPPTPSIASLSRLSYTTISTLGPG
# Method: The compounds of the examples were tested for binding at the CCKB receptor in mouse cortical membranes by means of a radioligand binding assay. The procedure was as follows:
# The whole brains from male mice (CD1 22-25 g; Charles River) were removed and placed in ice-cold buffer (pH7.2 @ 21±3 °) of the following composition (mM); 10 HEPES, 130 NaCl, 4.7 KCl, 5 MgCl2, 1 EDTA and containing 0.25 g.1^-1 bacitracin. The cortex was dissected, weighed and homogenised in 40 ml ice-cold buffer using a Teflon-in-glass homogeniser. The homogenate was centrifuged at 39,800 g for 20 min at @ 4°, the supernatant discarded and the pellet resuspended by homogenisation in fresh buffer. The homogenate was recentrifuged (39,800 g; 20 min @4°) and the final pellet was resuspended in HEPES buffer to give a tissue concentration of 2 mg.ml^-1 (original wet weight).
# The membranes ([…]) were incubated for 150 min at 21±3° in a final volume of 0.5 ml with HEPES buffer containing [^125 I]-CCK8S (0.05 ml; 200 pM NEN 2200 Ci.mmol^-1) and competing compound. Total and non-specific binding of [^125 I]-CCK8S were defined using 0.05 ml of buffer and 0.05 ml of […] L-365,260, respectively. The assay was terminated by rapid filtration through pre-soaked Whatman GF/B filters using a Brandell Cell harvester. The filters were washed (3×3 ml) with ice-cold 50 mM Tris-HC1 (pH7.4 @ 4° C.) and bound radioactivity determined by counting (1 min.) in a gamma-counter.
# gastrin receptors = target: T2, gastrin receptors (Rattus norvegicus, UniProt P30553); assay: gastrin antagonist activity in an immature rat stomach assay (pentagastrin-stimulated acid secretion); details: isolated immature rat stomach, cumulative pentagastrin dose-response curves; for Kb: read-out: Gastrin pKB (converted); for Gastrin pKB: 60 min
# T2 construct: from tissue; host or cells: isolated perfused whole stomach of immature rats (33-50 g, ca. 21 days old)
# T2 sequence (P30553 1-452): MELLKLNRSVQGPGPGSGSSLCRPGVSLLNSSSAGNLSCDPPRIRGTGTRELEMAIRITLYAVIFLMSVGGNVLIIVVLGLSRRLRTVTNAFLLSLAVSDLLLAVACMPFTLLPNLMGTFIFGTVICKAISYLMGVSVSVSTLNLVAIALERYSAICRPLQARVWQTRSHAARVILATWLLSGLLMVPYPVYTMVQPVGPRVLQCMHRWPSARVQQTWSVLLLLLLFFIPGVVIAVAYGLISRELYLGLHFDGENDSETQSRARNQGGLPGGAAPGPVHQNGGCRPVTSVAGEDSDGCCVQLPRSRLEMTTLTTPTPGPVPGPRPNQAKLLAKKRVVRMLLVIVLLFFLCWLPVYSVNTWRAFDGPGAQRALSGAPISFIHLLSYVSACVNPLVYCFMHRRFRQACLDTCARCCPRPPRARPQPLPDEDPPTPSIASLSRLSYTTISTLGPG
# Method: The compounds of the examples were also tested for gastrin antagonist activity in an immature rat stomach assay. The procedure was as follows:
# The oesophagus of immature rats (33-50 g, ca. 21 days old) was ligated at the level of the cardiac sphincter and the duodenal sphincter was cannulated. The stomach was excised and flushed with ca. 1 ml of unbuffered physiological saline solution. The fundus was punctured and cannulated. A further 4-5 ml of unbuffered solution was flushed through the stomach to ensure the preparation was not leaking. The stomach was lowered into a jacketed organ bath containing 40 ml of buffered solution containing 3×10^-8 M 5-methyl-furmethide, maintained at 37° and gassed vigorously with 95% O2 /5% CO2. The stomach was continuously perfused at a rate of 1 ml min^-1 with unbuffered solution gassed with 100% O2 with the perfusate passing over an internally referenced pH-electrode fixed 12 cm above the stomach.
# After 120 min of stabilisation the drugs were added directly to the serosal solution in the organ bath and after a further 60 min cumulative pentagastrin dose-response curves were started. Changes in acid secretion were monitored and the curves analysed according to Black et. al., Br. J. Pharmacol., 1985, 86, 581.
Structure (SMILES),Ki (CCKB receptor) [µM],Kb (gastrin receptors) [µM],CCKB pKi (CCKB receptor),Gastrin pKB (gastrin receptors)
"O=C1CC2c3ccccc3C1C(C(=O)O)C2C(=O)NCC12CC3CC(CC(C3)C1)C2 (mixture of isomers) [Example 13, endo-(±)-cis-8-(1-adamantylmethylaminocarbonyl)-2-oxo-5,6-benzobicyclo[2.2.2]octane-7-carboxylic acid]",2.51,3.16,,
"COC(=O)C12CC(c3ccccc31)C(C(=O)NCC13CC4CC(CC(C4)C1)C3)C2C(=O)O (mixture of isomers) [Example 54, 1-methoxycarbonyl-endo-cis-(±)-7-(1-adamantylmethylaminocarbonyl)-2,3-benzobicyclo-[2.2.1] hept-6-carboxylic acid]",,,5.3,6.1
"COC(=O)C12CC(c3ccccc31)C(C(=O)NCC13CC4CC(CC(C4)C1)C3)C2C(=O)N[C@@H](Cc1ccccc1)C(=O)Nc1cc(C(=O)O)cc(C(=O)O)c1 (mixture of isomers) [Example 55, (±)-1-methoxycarbonyl-endo-cis-6-(1S-(3,5-dicarboxyphenylaminocarbonyl)-2-phenylethylamino-carbonyl)-7-(1-adamantylmethylaminocarbonyl)-2,3-benzo-bicyclo[2.2.1]heptane]",,,7.6,6.9
"O=C(O)C1C2C=CC(C2=C(c2ccccc2)c2ccccc2)C1C(=O)NCC12CC3CC(CC(C3)C1)C2 (racemic) [Example 39, (±)-endo and exo-cis-7-(1-adamantylmethylaminocarbonyl)-2-diphenylmethylene bicyclo-[2.2.1]hept-4-ene-6-carboxylic acid]",2,2.51,,
"O=C(O)[C@@H]1[C@H](C(=O)NCC23CC4CC(CC(C4)C2)C3)[C@H]2C=C[C@@H]1c1ccccc12 (relative stereo) [Example 2, endo-(±)-cis-8-(1-adamantylmethylaminocarbonyl)-5,6-benzobicyclo[2.2.2]oct-2-ene-7-carboxylic acid]",2.51,1.26,,
"CC1=C(C)[C@H]2c3ccccc3[C@@H]1[C@@H](C(=O)O)[C@H]2C(=O)NCC12CC3CC(CC(C3)C1)C2 (relative stereo) [Example 11, exo-(±)-cis-8-(1-adamantylmethylaminocarbonyl)-2,3-dimethyl-5,6-benzobicyclo[2.2.2]oct-2-ene-7-carboxylic acid]",1.58,6.31,,
"CC1=C(C)[C@H]2c3ccccc3[C@@H]1[C@H](C(=O)O)[C@@H]2C(=O)NCC12CC3CC(CC(C3)C1)C2 (relative stereo) [Example 12, endo-(±)-cis-8-(1-adamantylmethylaminocarbonyl)-2,3-dimethyl-5,6-benzobicyclo[2.2.2]oct-2-ene-7-carboxylic acid]",0.794,5.01,,
"O=C(NCC12CC3CC(CC(C3)C1)C2)C1C2C=CC(c3ccccc32)C1C(=O)N[C@H](Cc1c[nH]c2ccccc12)C(=O)O (single isomer, unassigned) [Example 15, endo-cis-7-(2-R-(3-indolyl)-1-carboxy-ethylaminocarbonyl)-8-(1-adamantylmethylaminocarbonyl)-5,6-benzobicyclo[2.2.2]oct-2-ene]",1.58,3.16,,
"O=C(NCC12CC3CC(CC(C3)C1)C2)C1C2C=CC(c3ccccc32)C1C(=O)N[C@H](Cc1c[nH]c2ccccc12)C(=O)O (single isomer, unassigned) [Example 16, endo-cis-7-(2-R-(3-indolyl)-1-carboxy-ethylaminocarbonyl)-8-(1-adamantylmethylaminocarbonyl)-5 , 6-benzobicyclo[2.2.2]oct-2-ene]",0.316,0.501,,

# Further lines, results first:
Ki (CCKB receptor) [µM],Kb (gastrin receptors) [µM],CCKB pKi (CCKB receptor),Gastrin pKB (gastrin receptors),Structure (SMILES)
7.94,1,,,"COC(=O)[C@H](C)NC(=O)C1C2CCC(CC2)C1C(=O)NCC12CC3CC(CC(C3)C1)C2 (mixture of isomers) [Example 25, cis-(±)-2-(1-S-Methoxycarbonyl-ethylaminocarbonyl)-3-(1-adamantylmethylaminocarbonyl)-bicyclo[2.2.2]octane]"
,,5.1,5.6,"COC(=O)C12CC(c3ccccc31)C(C(=O)NCC13CC4CC(CC(C4)C1)C3)C2C(=O)N1CCC[C@@H]1C(=O)O (mixture of isomers) [Example 56, (±)-1-methoxycarbonyl-endo-cis-6-(2R-carboxypyrrolidinocarbonyl)-7-(1-adamantylmethylaminocarbonyl)-2,3-benzobicyclo[2.2.1]heptane]"
0.251,0.316,,,"COC(=O)[C@H](C)NC(=O)C1C2C=CC(c3ccccc32)C1C(=O)NCC12CC3CC(CC(C3)C1)C2 (stereo partly drawn) [Example 7, exo-cis-7-(1-S-methoxycarbonyl-ethylaminocarbonyl)-8-(1-adamantylmethylaminocarbonyl)-5,6-benzobicyclo[2.2.2]oct-2-ene]"
0.631,0.501,,,"COC(=O)[C@H](C)NC(=O)C1C2C=CC(c3ccccc32)C1C(=O)NCC12CC3CC(CC(C3)C1)C2 (stereo partly drawn) [Example 8, endo-cis-7-(1--S--methoxycarbonylethylaminocarbonyl)-8-(1-adamantylmethylaminocarbonyl)-5,6-benzobicyclo[2.2.2]oct-2-ene]"
2.51,0.794,,,"O=C(NCC12CC3CC(CC(C3)C1)C2)C1C2C=CC(c3ccccc32)C1C(=O)N1CCC[C@@H]1C(=O)O (stereo partly drawn) [Example 9, exo-cis-7-(2-R-carboxy-pyrrolidinocarbonyl)-8-(1-adamantylmethylaminocarbonyl)-5,6-benzobicyclo-[2.2.2]oct-2-ene]"
,0.501,,,"COC(=O)[C@@H]1CCCN1C(=O)C1C2C=CC(c3ccccc32)C1C(=O)NCC12CC3CC(CC(C3)C1)C2 (stereo partly drawn) [Example 31, exo-cis-7-(2-S-methoxycarbonyl-pyrrolidinocarbonyl)-8-(1-adamantylmethylaminocarbonyl)-5,6-benzo-bicyclo[2.2.2]oct-2-ene]"
5.01,,,,"C[C@H](NC(=O)[C@@H]1CCCN1C(=O)C1C2CCC(c3ccccc32)C1C(=O)NCC12CC3CC(CC(C3)C1)C2)C(=O)O (stereo partly drawn) [Example 51, cis-endo-7-(2S-(1S-carboxyethylaminocarbonyl)-pyrrolidinocarbonyl)-8-(1-adamantylmethylaminocarbonyl)-2,3-benzobicyclo[2.2.2]octane]"
0.1,,,,"C[C@@H](NC(=O)C[C@@H]1CCCN1C(=O)C1C2CCC(c3ccccc32)C1C(=O)NCC12CC3CC(CC(C3)C1)C2)C(=O)O (stereo partly drawn) [Example 52, cis-endo-7-(2S-(1R-carboxyethylaminocarbonylmethyl)-pyrrolidinocarbonyl)-8-(1-adamantylmethylaminocarbonyl)-2,3-benzobicyclo[2.2.2]octane]"
